Experimental data as given in patent US10774096B2, “4-substituted benzoxaborole compounds and uses thereof” (GLAXOSMITHKLINE INTELLECTUAL PROPERTY (NO.2) LIMITED, priority 2015, dated 2020).
Converted amounts (≈) assume the structure as drawn. “And” between values parts separate entries of the source, which are not always exact repeats. Equal values may be shown once. Where a name gives a salt, the structure may show the parent alone. Read-outs that look alike come from different tables or passages of the source.

How the values were obtained:
A. baumannii ATCC 17978 = assay: General antimicrobial activity assay (CLSI broth microdilution), MIC; type: cell-based
Method: (§1) Whole-cell antimicrobial activity was determined by broth microdilution using the Clinical and Laboratory Standards Institute (CLSI) recommended procedure, Document M7-A7, “Methods for Dilution Susceptibility Tests for Bacteria that Grow Aerobically”.
(§2) Table 1 provides MIC values against bacterial strains K12; E. coli K12 tolC/Tn10; A. baumannii ATCC 17978; and P. aeruginosa PA01 for comparator compounds (C1-C15) shown in Table 4 and for G26-CH3. […] Similarly, compound G26-CH3 (Example 2) has poor activity against these Gram negative bacteria.

E. coli K12 = assay: as above; type: cell-based
Method: as §1, §2

P. aeruginosa PA01 = assay: as above; type: cell-based
Method: as §1, §2

Mtb H37Rv = assay: MIC determination against mycobacteria (resazurin); type: cell-based, M. tuberculosis; conditions: for MIC: Mycobacterium tuberculosis, read-out: Mtb H37Rv MIC (B); for Selectivity Index (A/B): HepG2 Tox50 (A) / Mtb H37Rv MIC (B)
HepG2 cells = assay: HepG2 cytotoxicity assay (resazurin, 48 h); type: cell-based, human
Method: HepG2 cells (HB-8065) were fed fresh medium (Essential Minimum Eagle Medium, EMEM, supplemented with 5% fetal calf serum and 2 mM L-glutamine) the day before subculturing the plates. On the day of plate seeding, a cell suspension of 100,000 cells/mL in culture medium was prepared. Cell suspension (100 uL) was added in each well of a black 96-well microplate with clear bottom, collagen coated, (Becton Dickinson) except in column 11, that was dispensed only 100 uL of culture medium. The plates were incubated for 24 h. It was made up a range of 10 doses of test substances by preparing serial dilutions 1:2 from the stock solution in 100% DMSO and made a dilution of 1:200 of each dose in medium, to achieve a final concentration of 0.5% of DMSO. After 24 h, culture medium was removed from the plate and 150 uL of test compound dilutions were added in two replicates and 150 uL of 0.5% DMSO in culture medium to columns 11 and 12 (blank control). Plates were incubated for 48 and at 37° C., 5% CO2, 95% relative humidity. The medium was then removed and 200 uL of fresh culture medium was added and 50 uL of Resazurin solution to each well and incubated for 1 h and a half. Plates were removed from incubator to allow the fluorescence to stabilise at room temperature protected from light for 15 min. For read out of viability of cells we used Resazurine (BDH). Resazurin is used as an oxidation-reduction indicator that yields a colorimetric change and a fluorescent signal in response to metabolic activity. As cell grows, metabolic activity results in a chemical reduction of Resazurin indicated by a change from non-fluorescent blue to the reduced fluorescent pink form. The degree of Resazurin fluorescence is therefore, an indicator of the number of viable cells in the culture system. Fluorescence was measured at an excitation wavelength of 515 nm and an emission wavelength of 590 nm in a Microplate reader 1420 Multilabel HTS counter, Victor 2, (Wallac).
The fluorescence value of each well is corrected by subtracting the background value (average of column 11) from the absolute value. The percentages of inhibition are calculated relatively to the DMSO control wells (average of column 12). For each compound, the average value of the duplicate samples is calculated and the curve is fitted to Sigmoidal dose-response (variable slope) nonlinear regression curve adjustment (GraphPad) in order to calculate the IC50 (Tox50).

E. coli K12 tolC::Tn10 = assay: General antimicrobial activity assay (CLSI broth microdilution), MIC; type: cell-based; conditions: efflux pump deficient E. coli
Method: as §1, §2

S. pneumoniae ATCC 6301 = assay: as above; type: cell-based
Method: as §1

S. aureus ATCC 29213 = assay: as above; type: cell-based; parameters: unit not given beside the values
Method: as §1

Mtb LeuRS = Mtb LeuRS (Mycobacterium tuberculosis, UniProt P9WFV1); assay: LeuRS aminoacylation assay, IC50 determination; type: biochemical, M. tuberculosis
Method: For biochemical analyses an N-terminal six histidine-tagged LeuRS was over-expressed in Escherichia coli which were E. coli codon-optimised (GenScript, Piscataway N.J., USA), from human mitochondria and cytoplasm, and M. tuberculosis. N-terminal six histidine-tagged LeuRS proteins were over-expressed and purified according to Novagen (Madison, Wis., USA) using an E. coli BL21(DE3) T7 RNA polymerase over-expression strain.
Experiments were performed in 96-well microtiter plates, using 80 μL reaction mixtures containing 50 mM HEPES-KOH (pH 8.0), 30 mM MgCl2 30 mM KCl, 13 μM L-[^14C]leucine (306 mCi/mmol, Perkin-Elmer), 15 uM total E. coli tRNA (Roche, Switzerland), 0.02% (w/v) BSA, 1 mM DTT, 0.2 μM LeuRS and 4 mM ATP at 30° C. Reactions were started by the addition of 4 mM ATP. After 7 minutes, reactions were quenched and tRNA was precipitated by the addition of 50 μL of 10% (w/v) TCA and transferred to 96-well nitrocellulose membrane filter plates (Millipore Multiscreen HTS, MSHAN4B50). Each well was then washed three times with 100 μL of 5% TCA. Filter plates were then dried under a heat lamp and the precipitated L-[^14C]leucine tRNALeu were quantified by liquid scintillation counting using a Wallac MicroBeta Trilux model 1450 liquid scintillation counter (PerkinElmer, Waltham, Mass., USA). The only difference was with the human cytoplasmic LeuRS when we used tRNA isolated from Brewer's Yeast (Roche Diagnostics GmbH).
Reactions were initiated by the addition of 4 mM ATP. Reactions were stopped after 7 minutes then precipitated and counted to quantify radioactivity. IC50 values were determined using the Graphpad Prism software package (Graphpad Software Inc. (La Jolla, Calif., USA).

Human cyto LeuRS = Human cyto LeuRS (Homo sapiens, UniProt Q9P2J5); assay: LeuRS aminoacylation assay, IC50 determination; type: biochemical; conditions: tRNA from Brewer's Yeast
[1] = tested on: mammalian cellular protein synthesis; assay: Inhibition of protein synthesis in mammalian cells; type: cell-based
[2] = tested on: pathogenic Gram negative bacteria; assay: General antimicrobial activity assay, summary in words for the panel; type: cell-based
Method: as §1, §2

[3] = M. tuberculosis standard strain H37Rv

Sequence of Human cyto LeuRS (Q9P2J5 whole entry): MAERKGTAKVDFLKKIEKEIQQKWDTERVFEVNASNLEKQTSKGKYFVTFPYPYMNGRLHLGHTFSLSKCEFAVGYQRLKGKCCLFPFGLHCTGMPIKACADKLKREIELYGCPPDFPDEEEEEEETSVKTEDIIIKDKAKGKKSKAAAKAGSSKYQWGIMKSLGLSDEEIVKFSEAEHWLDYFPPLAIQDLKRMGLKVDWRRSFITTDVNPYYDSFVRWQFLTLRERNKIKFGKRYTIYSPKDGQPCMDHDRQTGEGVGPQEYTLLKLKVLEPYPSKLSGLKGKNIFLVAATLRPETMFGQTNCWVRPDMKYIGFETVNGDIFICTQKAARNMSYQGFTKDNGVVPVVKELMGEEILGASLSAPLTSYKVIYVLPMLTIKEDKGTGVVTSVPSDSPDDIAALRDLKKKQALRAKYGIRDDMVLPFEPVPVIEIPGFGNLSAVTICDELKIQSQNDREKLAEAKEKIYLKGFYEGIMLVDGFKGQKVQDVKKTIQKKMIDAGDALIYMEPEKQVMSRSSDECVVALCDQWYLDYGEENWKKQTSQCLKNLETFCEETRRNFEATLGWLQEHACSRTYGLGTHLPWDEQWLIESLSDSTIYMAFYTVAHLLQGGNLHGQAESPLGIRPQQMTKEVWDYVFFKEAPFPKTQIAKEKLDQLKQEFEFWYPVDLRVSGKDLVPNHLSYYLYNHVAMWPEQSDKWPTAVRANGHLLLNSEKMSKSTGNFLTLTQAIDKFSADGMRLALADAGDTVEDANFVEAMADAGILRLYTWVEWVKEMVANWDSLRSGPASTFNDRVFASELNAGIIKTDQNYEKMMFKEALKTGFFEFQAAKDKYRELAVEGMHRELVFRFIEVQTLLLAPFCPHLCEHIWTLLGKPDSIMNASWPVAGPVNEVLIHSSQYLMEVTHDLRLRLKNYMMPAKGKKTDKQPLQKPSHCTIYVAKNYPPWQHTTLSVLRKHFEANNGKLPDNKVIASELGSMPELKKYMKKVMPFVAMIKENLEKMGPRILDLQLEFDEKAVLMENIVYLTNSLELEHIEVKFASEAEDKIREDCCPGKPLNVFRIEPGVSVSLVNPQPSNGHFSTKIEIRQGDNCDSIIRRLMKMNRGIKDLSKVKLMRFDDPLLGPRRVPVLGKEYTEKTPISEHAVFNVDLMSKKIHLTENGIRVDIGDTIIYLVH
Sequence of Mtb LeuRS (P9WFV1 whole entry): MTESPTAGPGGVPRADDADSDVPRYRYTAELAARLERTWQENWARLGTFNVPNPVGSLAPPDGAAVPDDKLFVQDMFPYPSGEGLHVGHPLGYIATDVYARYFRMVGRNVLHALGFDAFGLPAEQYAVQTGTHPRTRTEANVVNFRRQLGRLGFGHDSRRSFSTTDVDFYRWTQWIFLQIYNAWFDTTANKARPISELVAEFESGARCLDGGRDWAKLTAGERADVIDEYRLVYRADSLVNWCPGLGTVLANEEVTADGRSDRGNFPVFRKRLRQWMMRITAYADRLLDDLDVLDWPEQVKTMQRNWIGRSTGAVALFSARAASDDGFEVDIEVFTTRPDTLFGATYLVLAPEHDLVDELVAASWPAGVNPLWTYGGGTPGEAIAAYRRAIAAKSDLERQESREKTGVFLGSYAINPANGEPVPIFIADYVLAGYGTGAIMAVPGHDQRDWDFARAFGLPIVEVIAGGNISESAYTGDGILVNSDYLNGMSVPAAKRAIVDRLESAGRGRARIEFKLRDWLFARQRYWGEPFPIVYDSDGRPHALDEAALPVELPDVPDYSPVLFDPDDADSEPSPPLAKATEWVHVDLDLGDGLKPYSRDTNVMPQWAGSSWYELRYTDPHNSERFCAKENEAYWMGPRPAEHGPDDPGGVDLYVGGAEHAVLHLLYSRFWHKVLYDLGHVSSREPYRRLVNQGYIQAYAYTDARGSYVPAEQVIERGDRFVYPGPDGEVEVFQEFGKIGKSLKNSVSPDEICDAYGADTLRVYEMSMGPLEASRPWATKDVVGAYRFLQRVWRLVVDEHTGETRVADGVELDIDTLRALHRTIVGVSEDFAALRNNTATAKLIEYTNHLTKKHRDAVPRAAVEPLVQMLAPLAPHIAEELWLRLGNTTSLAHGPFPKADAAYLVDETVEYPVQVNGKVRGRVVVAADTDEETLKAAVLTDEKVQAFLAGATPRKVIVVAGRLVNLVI

SMILES: NCC1OB2OCCOc3cccc1c32 (racemic) [Example C2-H]
- MIC: A. baumannii ATCC 17978 (A. baumannii ATCC 17978): 2 µg/mL (≈ 9.76 µM)
- MIC: E. coli K12 (E. coli K12): 2 µg/mL (≈ 9.76 µM)
- MIC: P. aeruginosa PA01 (P. aeruginosa PA01): 2 µg/mL (≈ 9.76 µM)
- MIC (Mtb H37Rv; H37RV): 1.88 µM (≈ 0.385 µg/mL)
- HepG2 cell 48 h Tox50 (A) (HepG2 cells; human): >50 µM

SMILES: Cc1ccc2c3c1[C@@H](CN)OB3OCCO2 [Example 2, (S)-(3-methyl-7,8-dihydro-2H-1,6,9-trioxa-9a-borabenzo[cd]azulen-2-yl)methanamine]
- MIC: A. baumannii ATCC 17978 (A. baumannii ATCC 17978): >64 µg/mL
- MIC: E. coli K12 tolC::Tn10 (E. coli K12 tolC::Tn10): >64 µg/mL
- MIC: E. coli K12 (E. coli K12): >64 µg/mL
- MIC: P. aeruginosa PA01 (P. aeruginosa PA01): >64 µg/mL
- MIC: S. pneumoniae ATCC 6301 (S. pneumoniae ATCC 6301): >64
- MIC S. aureus ATCC 29213 (S. aureus ATCC 29213): >64
- IC50 (Mtb LeuRS): 0.53 µM
- activity against leucyl tRNA synthetase from M. tuberculosis (Mtb LeuRS): good activity
- IC50 (Human cyto LeuRS): 171 µM
- Selectivity Index (A/B) (Mtb H37Rv; listed as Example 2 G26-CH3): 4853 and > 4850
- MIC (Mtb H37Rv; H37RV): 0.2 µM (≈ 0.0438 µg/mL)
- HepG2 cell 48 h Tox50 (A) (HepG2 cells; human): 971 µM
- impact on mammalian cellular protein synthesis [1]: low impact
- IC50 ([1]; mammalian cells, read-out: Cell Prot Syn IC50): > 600 µM
- activity against Gram negative bacteria [2]: poor activity

SMILES: NC[C@H]1OB2OCCOc3ccc(-c4ccccc4)c1c32 [Example 3, (S)-(3-phenyl-7,8-dihydro-2H-1,6,9-trioxa-9a-borabenzo[cd]azulen-2-yl)methanamine hydrochloride]
- IC50 (Mtb LeuRS; read-out: Mtb LeuRS IC50): 12 µM
- MIC (Mtb H37Rv; H37RV): 8.75 µM

SMILES: NC[C@H]1OB2OCCOc3ccc(-c4cccs4)c1c32 [Example 4, (S)-(3-(thiophen-2-yl)-7,8-dihydro-2H-1,6,9-trioxa-9a-borabenzo[cd]azulen-2-yl)methanamine]
- IC50 (Mtb LeuRS; read-out: Mtb LeuRS IC50): 300 µM
- MIC (Mtb H37Rv; H37RV): 40.1 µM (≈ 11.5 µg/mL)

SMILES: c1cc2c3c(c1)OCCOB3OC2 [Example C1-H]
- MIC (Mtb H37Rv; [3]): 31 µM (≈ 5.46 µg/mL)

SMILES: NCCOc1cccc2c1B(O)OC2 [Example C3-H]
- Selectivity Index (A/B) (Mtb H37Rv): >0.8
- MIC (Mtb H37Rv; [3]): 62 µM (≈ 12 µg/mL)
- HepG2 cell 48 h Tox50 (A) (HepG2 cells): >50 µM

SMILES: CCOc1ccc(Br)c2c1B(O)O[C@@H]2CN [Example C4-Br]
- IC50 (Human cyto LeuRS): 73 µM and 67 µM
- Selectivity Index (A/B) (Mtb H37Rv): 320
- MIC (Mtb H37Rv; [3]): 0.1 µM (≈ 0.0286 µg/mL)
- HepG2 cell 48 h Tox50 (A) (HepG2 cells): 32 µM

SMILES: CCOc1cccc2c1B(O)O[C@@H]2CN [Example C5-H]
- Selectivity Index (A/B) (Mtb H37Rv): 3
- MIC (Mtb H37Rv; [3]): 0.6 µM (≈ 0.124 µg/mL)
- HepG2 cell 48 h Tox50 (A) (HepG2 cells): 1.8 µM

SMILES: CCOc1ccc(Cl)c2c1B(O)O[C@@H]2CN [Example C6-Cl]
- Selectivity Index (A/B) (Mtb H37Rv): 363
- MIC (Mtb H37Rv; [3]): 0.1 µM (≈ 0.0241 µg/mL)
- HepG2 cell 48 h Tox50 (A) (HepG2 cells): 36.3 µM

SMILES: CC1COc2c(Cl)cc(Cl)c3c2B(O1)OC3CN (centres unmarked) [Example C7-Cl2]
- Selectivity Index (A/B) (Mtb H37Rv): >20
- MIC (Mtb H37Rv; H37RV): 2.5 µM (≈ 0.72 µg/mL)
- HepG2 cell 48 h Tox50 (A) (HepG2 cells; human): >50 µM

SMILES: CC1(C)COc2c(Cl)ccc3c2B(OC3CN)O1 (centres unmarked) [Example C8-Cl]
- Selectivity Index (A/B) (Mtb H37Rv): 10
- HepG2 cell 48 h Tox50 (A) (HepG2 cells; human): >50 µM

SMILES: CC1(C)COB2OC(CN)c3c(Cl)ccc(c32)O1 (centres unmarked) [Example C9-Cl]
- Selectivity Index (A/B) (Mtb H37Rv): >10
- Selectivity Index (A/B) (Mtb H37Rv; listed as C9-CI): 10
- MIC (Mtb H37Rv; H37RV): 5 µM (≈ 1.34 µg/mL)
- HepG2 cell 48 h Tox50 (A) (HepG2 cells; human): >50 µM

SMILES: CC1(C)COB2OC(CN)c3cccc(c32)O1 (centres unmarked) [Example C10-H]
- Selectivity Index (A/B) (Mtb H37Rv): 10
- HepG2 cell 48 h Tox50 (A) (HepG2 cells; human): >50 µM

SMILES: CC1COc2cccc3c2B(O1)OC3CN (centres unmarked) [Example C11-H]
- MIC: A. baumannii ATCC 17978 (A. baumannii ATCC 17978): 4 µg/mL (≈ 18.3 µM)
- MIC: E. coli K12 (E. coli K12): 2 µg/mL (≈ 9.13 µM)
- MIC: P. aeruginosa PA01 (P. aeruginosa PA01): 2 µg/mL (≈ 9.13 µM)
- MIC (Mtb H37Rv; H37RV): 1.56 µM (≈ 0.342 µg/mL)
- HepG2 cell 48 h Tox50 (A) (HepG2 cells; human): > 50 µM
- HepG2 cell 48 h, percentage in brackets beside Tox50 (HepG2 cells; meaning of bracket not explained): 40%

SMILES: CC1(C)COc2cccc3c2B(OC3CN)O1 (centres unmarked) [Example C12-H]
- MIC: A. baumannii ATCC 17978 (A. baumannii ATCC 17978): 4 µg/mL (≈ 17.2 µM)
- MIC: E. coli K12 (E. coli K12): 4 µg/mL (≈ 17.2 µM)
- MIC: P. aeruginosa PA01 (P. aeruginosa PA01): 16 µg/mL (≈ 68.6 µM)
- HepG2 cell 48 h Tox50 (A) (HepG2 cells; human): 24.5 µM

SMILES: NC[C@H]1OB2OCCOc3c(Cl)ccc1c32 [Example C13-Cl]
- IC50 (Mtb LeuRS; read-out: Mtb LeuRS IC50): 2.16 µM
- Selectivity Index (A/B) (Mtb H37Rv): >10
- MIC (Mtb H37Rv; H37RV): 5 µM (≈ 1.2 µg/mL)
- HepG2 cell 48 h Tox50 (A) (HepG2 cells; human): >50 µM

SMILES: NC[C@H]1OB2OCCOc3c(Cl)cc(Cl)c1c32 [Example C14-Cl2]
- Selectivity Index (A/B) (Mtb H37Rv): >10
- HepG2 cell 48 h Tox50 (A) (HepG2 cells; human): >50 µM
